Test [1] addresses T1, Lysine-specific demethylase 4A (Homo sapiens) (UniProt O75164).
T1 sequence (whole entry): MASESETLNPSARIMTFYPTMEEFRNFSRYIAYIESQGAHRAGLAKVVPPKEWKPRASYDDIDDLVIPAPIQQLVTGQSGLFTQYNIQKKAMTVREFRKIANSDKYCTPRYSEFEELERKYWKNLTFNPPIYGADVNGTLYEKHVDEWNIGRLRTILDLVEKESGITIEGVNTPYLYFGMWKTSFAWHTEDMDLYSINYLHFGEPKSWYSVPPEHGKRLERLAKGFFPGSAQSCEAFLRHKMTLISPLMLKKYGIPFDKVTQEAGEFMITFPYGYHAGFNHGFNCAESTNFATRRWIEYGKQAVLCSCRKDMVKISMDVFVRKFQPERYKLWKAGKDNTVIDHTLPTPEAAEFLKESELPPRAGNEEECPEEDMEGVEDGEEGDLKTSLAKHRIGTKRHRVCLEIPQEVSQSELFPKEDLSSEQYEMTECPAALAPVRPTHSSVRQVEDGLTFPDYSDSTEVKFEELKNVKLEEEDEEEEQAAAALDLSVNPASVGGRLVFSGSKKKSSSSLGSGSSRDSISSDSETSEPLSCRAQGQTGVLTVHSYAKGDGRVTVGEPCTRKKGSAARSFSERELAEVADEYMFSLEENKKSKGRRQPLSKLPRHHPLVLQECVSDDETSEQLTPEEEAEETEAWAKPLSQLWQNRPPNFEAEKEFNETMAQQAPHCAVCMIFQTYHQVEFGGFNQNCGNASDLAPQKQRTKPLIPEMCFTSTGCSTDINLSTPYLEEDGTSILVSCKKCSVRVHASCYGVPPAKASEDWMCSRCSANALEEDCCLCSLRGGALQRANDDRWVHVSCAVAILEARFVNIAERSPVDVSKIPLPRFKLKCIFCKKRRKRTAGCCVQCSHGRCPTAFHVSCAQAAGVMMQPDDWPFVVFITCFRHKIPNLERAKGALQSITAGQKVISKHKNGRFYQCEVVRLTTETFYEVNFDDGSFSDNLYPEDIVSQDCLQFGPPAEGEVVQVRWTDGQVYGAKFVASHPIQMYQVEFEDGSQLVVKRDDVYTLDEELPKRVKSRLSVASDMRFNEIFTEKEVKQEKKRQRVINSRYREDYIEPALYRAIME
Nature of the test: (§1) Binding affinity to thrombin cleavable N-terminal 6His-tagged and 13C-IVLM labeled human KDM4A tandem TUDOR domain (897 to 1011 residues) expressed in Escherichia coli BL21(DE3)-T1R at 1 mM by 13C HSQC NMR spectroscopy.

Test [2] addresses T2, Lysine-specific demethylase 4A (Homo sapiens, UniProt O75164).
T2 sequence (O75164 whole entry): T1 sequence (whole entry)
Nature of the test: Binding affinity to thrombin cleavable N-terminal 6His tagged and 13C-IVLM labeled human KDM4A tandem TUDOR domain (897 to 1011 residues) expressed in Escherichia coli BL21(DE3)-T1R by ITC method.

The target in test [3] is T2, Lysine-specific demethylase 4A. The test is described as §1.
Test [4] has the same target. Nature of the test: Inhibition of NanoLuc-KDM4A-TUDOR domain (unknown origin) binding to Histone H3.3-HaloTag expressed in 293T cells incubated for 18 hrs by Nano-BRET based target engagement assay. Type of test: cell-based.

The source made the active and inactive calls. No cut-off for these calls is given here. Square brackets hold non-standard residues; d marks the D form. Peptide text beside a SMILES is read from it. Lys(Me3) = C[N+](C)(C)CCCC[C@H](N)C(=O)O

Take `C[C@H](N)C(=O)N[C@@H](CCCNC(=N)N)C(=O)N[C@H](C(=O)N[C@@H](CCCC[N+](C)(C)C)C(=O)N[C@@H](CCC(N)=O)C(=O)N[C@H](C(=O)N[C@@H](C)C(=O)N[C@@H](CCCNC(=N)N)C(=O)N[C@@H](CCCCN)C(=O)N[C@@H](CO)C(=O)O)[C@@H](C)O)[C@@H](C)O`: in test [1], the outcome was Active. The compound also showed a Kd in test [2] of 3 µM. The compound `CC(C)C[C@H](NC(=O)[C@@H](NC(=O)[C@H](CCCC[N+](C)(C)C)NC(=O)[C@H](CCCNC(=N)N)NC(=O)[C@H](Cc1cnc[nH]1)NC(=O)[C@H](CCCNC(=N)N)NC(=O)[C@@H](N)CCCCN)C(C)C)C(=O)N[C@@H](CCCNC(=N)N)C(=O)N[C@@H](CC(=O)O)C(=O)N[C@@H](CC(N)=O)C(=O)O` (H-KRHR[Lys(Me3)]VLRDN-OH) gave a Kd in test [2] of 4.7 µM.

`CN(C)CC1C2CCC(c3ccccc3)(C2)C1O` (stereo not given) came in with a Kd in test [3] of 80 µM. `CN(C)C[C@@H]1C2CCC(c3ccccc3)(C2)[C@@H]1O` (stereo not given in full) came in with a half-maximal effective concentration (EC50) in test [4] of 1220 µM.

The term Kd denotes the free concentration of one partner at which half of the binding sites on the other are occupied at equilibrium, for simple one-to-one binding. Low readings indicate tighter binding, high ones weaker binding. The term EC50 denotes the concentration at which the effect is half-maximal. A high value points to lower potency in that assay.

The values above are taken from ChEMBL document CHEMBL4190382, “Targeting lysine specific demethylase 4A (KDM4A) tandem TUDOR domain - A fragment based approach” (Bioorg Med Chem Lett, 2018).
